No end group written: not given here.
How the values were obtained:
[1] = tested on: Mof mRNA in Mof^f/f;Cre-ER brown preadipocytes; test: qRT-PCR of Mof mRNA; assay type: cell-based, mouse
Experimental: (§1) Mof^f/f mice were crossed with Cre-ER (Jackson no. 008463) to generate Mof^f/f;Cre-ER mice[10]. Primary brown preadipocytes were isolated from interscapular brown adipose tissue of newborn (P0) Mof^f/f;Cre-ER pups and immortalized by SV40T[38]. All mouse experiments were performed in accordance with the NIH Guide for the Care and Use of Laboratory Animals and approved by the Animal Care and Use Committee of NIDDK, NIH. For rescue experiment by ectopic expression of rat MOF, immortalized Mof^f/f;Cre-ER preadipocytes stably expressing WT or K274R MOF were established using lentivirus-mediated gene transfer. Briefly, 293FT lentiviral packaging cells were transfected with pLenti-CMV plasmids expressing MYC-tagged WT or K274R rat MOF. Preadipocytes were infected with those lentivirus-containing media, followed by puromycin selection for two passages. Those expressing MYC-tagged rat MOF were confirmed by western blot.
(§2) Western blot of histone modifications using acid extracts or of nuclear proteins using nuclear extracts were done as described[45],[46]. Total RNA was extracted using TRIzol (Invitrogen) and reverse transcribed using the ProtoScript II First-Strand cDNA Synthesis Kit (NEB), following the manufacturers’ instructions. qRT-PCR was done using the following SYBR green primers: Mof (forward, 5’–[…]–3’, and reverse, 5’–[…]–3’). qPCR was done using Luna® Universal qPCR Master Mix according to the manufacturers’ instructions (NEB). To detect truncated Mof transcripts after 4-OHT treatment (2 µM), RT-PCR was performed as described.

[2] = tested on: Jmjd3 mRNA in Mof^f/f;Cre-ER brown preadipocytes; test: qRT-PCR of Jmjd3 mRNA (control gene); assay type: cell-based, mouse
Experimental: as §1, §2

[3] = tested on: Mof^f/f;Cre-ER brown preadipocytes; test: Growth rate of Mof KO cells; assay type: cell-based, mouse; conditions: for growth rate of Mof KO cells: 4OHT
Experimental: as §1

[4] = tested on: MLL4-PHD6 (aa 1503–1562), wild-type; test: 1H,15N HSQC NMR titration of WT MLL4-PHD6; assay type: binding, human; conditions: for chemical shift perturbations (CSPs): 1H,15N HSQC titration, 0.15 mM 15N-labeled MLL4-PHD6, PBS pH 6.5, 298 K
Experimental: (§3) The PHD6 domain of human MLL4 (aa 1503–1562) was cloned into a pCool vector. […] The human MLL3 PHD7 domain (aa 1083–1143) was cloned into a pGEX-6p vector. All constructs were expressed in Rosetta2 (DE3) pLysS cells. Protein production was induced with 0.5 mM IPTG overnight at 16̊ °C in Luria broth (LB) or minimal media (M9) supplemented with ^15NH4Cl and 0.06 mM ZnCl2 or ^15NH4Cl, ^13C-glucose, and 0.06 mM ZnCl2. The GST-tagged PHD proteins were purified on glutathione Sepharose 4B beads (GE Healthcare) in 50 mM Tris-HCl (pH 7.5) buffer, supplemented with 250 mM NaCl and 2 mM dithiothreitol (DTT). The GST tag was cleaved with Thrombin or TEV protease overnight at 4 °̊C. Unlabeled proteins were further purified by size exclusion chromatography and concentrated in Millipore concentrators. All mutants were generated by site-directed mutagenesis using the Stratagene QuikChange mutagenesis protocol, grown, and purified as WT proteins.
NMR samples for structure determination were prepared in 20 mM Tris-HCl (pH 7.0) buffer, supplemented with 100 mM NaCl, 5 mM DTT, and 8% D2O. […] 3D ^15N-/^13C-filtered ^13C- and ^15N-edited NOESY-HSQC spectra (mixing time of 150 ms) were collected to obtain intermolecular distance restraints.
(§4) For NMR titration experiments, ^1H,^15N HSQC spectra of 0.15 mM uniformly ^15N-labeled WT or mutated MLL4-PHD6 were recorded while peptides (synthesized by SynPeptide) were added stepwise. All experiments were carried out in phosphate-buffered saline buffer (pH 6.5).

[5] = tested on: MLL4-PHD6; test: 1H,15N HSQC of linked H4-G7-MLL4-PHD6 construct; assay type: binding, human
Experimental: as §3, §4

[6] = target: T1, MLL4-PHD6 part of the linked H4-G7-MLL4-PHD6 construct (human, UniProt O14686 1503-1562); test: NMR, 1H,15N HSQC spectra of a linked construct compared with free and peptide-bound PHD6; H4 (11–23) joined to MLL4-PHD6 on one chain through a hepta-glycine linker; wild type and H4 mutants; conditions: both partners purified
T1 construct: human MLL4 (KMT2D), PHD6 finger; aa 1503-1562 by the methods, 1503-1560 by the results; in the assay joined at its N-terminus through GGGGGGG to H4 residues 11-23 (m15 or its mutants) on one chain; also called H4_(11–23)-G7-PHD6 (PHD6 part); source: E. coli Rosetta2 (DE3) pLysS, purified
T1 sequence (O14686 1503-1562): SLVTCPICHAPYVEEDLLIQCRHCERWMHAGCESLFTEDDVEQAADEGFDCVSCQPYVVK

[7] = target: T2, PHD6 finger of human MLL4 (aa 1503-1562) (human, UniProt O14686 1503-1562); test: NMR titration; 1H,15N HSQC spectra of 0.15 mM uniformly 15N-labelled MLL4-PHD6 while peptide was added stepwise up to a protein:peptide molar ratio of 1:5; phosphate-buffered saline pH 6.5; 298 K; conditions: both partners purified
T2 construct: PHD6 finger of human MLL4 (KMT2D), aa 1503-1562, cloned into a pCool vector; Uniformly 15N-labelled for the titrations at 0.15 mM; also called MLL4-PHD6; MLL4-PHD6 1503-1562; source: Rosetta2 (DE3) pLysS cells, purified (glutathione Sepharose 4B; GST tag cleaved)
T2 sequence (O14686 1503-1562): as above

[8] = target: T3, PHD6 finger of MLL4 (MLL4-PHD6, aa 1503–1562), wild type (human, UniProt O14686 1503-1562); test: NMR titration; 1H,15N HSQC of 0.15 mM uniformly 15N-labeled PHD finger (WT or mutated), peptides added stepwise; phosphate-buffered saline pH 6.5; 298 K; conditions: both partners purified
T3 construct: human MLL4 (KMT2D), PHD6 finger, aa 1503-1562; cloned into a pCool vector; 15N- or 13C/15N-labelled for NMR; also called MLL4-PHD6_(1503–1562); PHD6 domain of human MLL4; source: E. coli Rosetta2 (DE3) pLysS, purified (glutathione Sepharose, GST cleaved, SEC for unlabeled protein)
T3 sequence (O14686 1503-1562): as above

[9] = target: T3, PHD6 finger of MLL4 (MLL4-PHD6, aa …); test: NMR structure; solution structure; 2.5 mM 13C/15N-labeled MLL4-PHD6 and 7.5 mM H4K16ac (11–21) peptide; 20 mM Tris-HCl pH 7.0, 100 mM NaCl, 5 mM DTT, 8% D2O; 298 K; conditions: both partners purified
[10] = target: T2, PHD6 finger of human MLL4 (aa 1503-1562); test: NMR titration; 1H,15N HSQC spectra of 2.5 mM 13C/15N-labelled MLL4-PHD6 upon titration with H4K16ac (11-21) peptide at protein:ligand 1:0, 1:2, 1:3; 20 mM Tris-HCl pH 7.0, 100 mM NaCl, 5 mM DTT, 8% D2O; 298 K; conditions: both partners purified
[11] = 4OHT-treated, technical replicate 1
[12] = 4OHT-treated, technical replicate 2
[13] = after two rounds of 4OHT treatment

In the case of `CC/C(=C(\c1ccc(O)cc1)c1ccc(OCCN(C)C)cc1)c1ccccc1` [4OHT, 4-hydroxytamoxifen], the “relative Mof mRNA level” value ([1]; 4OHT-treated Mof^f/f;Cre-ER preadipocytes, average of two technical replicates, single experiment, Mock average 1.00268, STDEV in own column) is reported as 0.1967, the “relative Mof mRNA level” value [1, 11] is reported as 0.2148 and the “relative Mof mRNA level” value [1, 12] is reported as 0.1786. For the same molecule, the “mRNA level of Mof” value [1, 13] was “significantly decreased”, the “relative Jmjd3 mRNA level” value ([2]; 4OHT-treated Mof^f/f;Cre-ER preadipocytes, average of two technical replicates, Mock average 1.00005, STDEV in own column) was 0.8326 and the “relative Jmjd3 mRNA level” value [2, 11] was 0.841. The “relative Jmjd3 mRNA level” value [2, 12] was 0.8241, the “mRNA of control gene Jmjd3” value [2, 13] was “unaffected” and the “growth rate of Mof KO cells” value ([3]; D1, average of two replicates (D0 = 1; Mock 3.715)) was 2.81. For the same molecule, the “growth rate of Mof KO cells” value ([3]; D1, replicate 1 (Mock 3.89)) was 2.98, the “growth rate of Mof KO cells” value ([3]; D1, replicate 2 (Mock 3.54)) was 2.64 and the “growth rate of Mof KO cells” value ([3]; D2, average of two replicates (D0 = 1; Mock 6.365)) was 4.725. The “growth rate of Mof KO cells” value ([3]; D2, replicate 1 (Mock 5.82)) was 4.59, the “growth rate of Mof KO cells” value ([3]; D2, replicate 2 (Mock 6.91)) was 4.86 and the “growth rate of Mof KO cells” value ([3]; D3, average of two replicates (D0 = 1; Mock 10.695)) was 7.02. For the same molecule, the “growth rate of Mof KO cells” value ([3]; D3, replicate 1 (Mock 9.81)) was 6.59, the “growth rate of Mof KO cells” value ([3]; D3, replicate 2 (Mock 11.58)) was 7.45 and the “growth rate of Mof KO cells” value ([3]; D4, average of two replicates (D0 = 1; Mock 17.965)) was 12. The “growth rate of Mof KO cells” value ([3]; D4, replicate 1 (Mock 16.98)) was 12.54, the “growth rate of Mof KO cells” value ([3]; D4, replicate 2 (Mock 18.95)) was 11.46 and the “growth rate of Mof KO cells” value ([3]; D5, average of two replicates (D0 = 1; Mock 25.18)) was 15.215. The “growth rate of Mof KO cells” value ([3]; D5, replicate 1 (Mock 26.41)) was 14.49, the “growth rate of Mof KO cells” value ([3]; D5, replicate 2 (Mock 23.95)) was 15.94 and the “growth, 4OHT average relative to Mock” value ([3]; D4) was 66.7965. The “growth, 4OHT average relative to Mock” value ([3]; D5) was 60.4249.

`CC(=O)NCCCC[C@H](N)C(=O)O` [Kac] was tested, and the “chemical shift perturbations (CSPs)” value [4] was “failed to induce CSPs”.

“H4K16ac (11–21): H4K16ac peptide (residues 11–21) used for NMR structure; 15N/13C-labeled form synthesized by Bio-Synthesis” was tested, and the “saturation of MLL4-PHD6 by 3-fold excess of peptide” value ([4]; 7.5 mM H4K16ac (11–21) with 2.5 mM 13C/15N-labeled MLL4-PHD6, 20 mM Tris-HCl pH 7.0, 100 mM NaCl, 5 mM DTT, 8% D2O, 298 K, 1H,15N HSQC and 1H,13C HSQC) was “almost saturated”.

In the case of “H4_1–9: H4 peptide (residues 1–9 of H4) (SGRGKGGKG)”, the “chemical shift perturbations (CSPs)” value [4] is reported as “no chemical shift perturbations”.

In the case of “H4_8–25: peptide encompassing residues 8–25 of H4 (KGLGKGGAKRHRKVLRDN)”, the “chemical shift perturbations (CSPs)” value [4] is reported as “CSPs similar in directions to CSPs induced by the longer H4_1–23 peptide”.

In the case of “H4_12–23: peptide encompassing residues 12–23 of H4 (KGGAKRHRKVLR)”, the “chemical shift perturbations (CSPs)” value [4] is reported as “CSPs similar in directions to CSPs induced by the longer H4_1–23 peptide”.

With “linked H4-MLL4-PHD6 construct: aa 11–23 of H4, hepta-glycine (GGGGGGG) linker, aa 1503–1562 of MLL4-PHD6” the “spectral changes on mutation” value ([5]; H4K12 mutated to alanine in linked construct) was “only small spectral changes”, the “spectral changes on mutation” value ([5]; H4K23 mutated to alanine in linked construct) was “only small spectral changes” and the “binding of the H4 region in linked construct” value ([5]; H4 aa 11–23, hepta-glycine linker, MLL4-PHD6, no mutation) was “tightly bound to the protein”. The “complex formation on mutation” value ([5]; K16 and R17 of H4 mutated to alanine in linked construct) was “disrupted formation of the complex”.

B1: H4 (residues 11–23) part of the linked H4-G7-MLL4-PHD6 construct, wild type (domain or fragment, UniProt P62805 12-24, looked up)
chain: GKGGAKRHRKVLR
notes: histone H4, residues 11-23; in the assay this stretch stood on ONE chain with m16: H4 11-23, hepta-glycine linker GGGGGGG, MLL4-PHD6; cloned into pDEST-15; also called H4_(11–23)-G7-PHD6 (H4 part); linked H4-MLL4-PHD6 construct; source: E. coli Rosetta2 (DE3) pLysS, purified
B1: binds [6].

B2: H4 (residues 11–23) K12A part of the linked H4-G7-MLL4-PHD6 construct (domain or fragment, UniProt P62805 12-24, looked up)
chain: GAGGAKRHRKVLR
notes: histone H4, residues 11-23, K12A; on one chain with m16 through a GGGGGGG linker; also called H4K12 to alanine in the linked construct; source: E. coli Rosetta2 (DE3) pLysS, purified as WT protein
B2: binds [6].

B3: histone H4 (8-25) peptide (peptide, UniProt P62805 9-26, looked up)
peptide: KGLGKGGAKRHRKVLRDN
notes: histone H4, residues 8-25, unmodified; source: synthetic peptide (SynPeptide)
B3: binds [7].

B4: histone H4 peptide, residues 12–23 (peptide, UniProt P62805 13-24, looked up)
peptide: KGGAKRHRKVLR
notes: histone H4, residues 12-23; also called H4_(12–23); source: synthetic peptide (SynPeptide)
B4: binds [8].

B5: histone H4K16ac peptide, residues 11–21 (peptide, UniProt P62805 12-22, looked up)
peptide: GKGGAK(Ac)RHRKV
notes: histone H4, residues 11-21, acetylated at K16; a 15N/13C-labelled copy (Bio-Synthesis) was used to validate assignments; in the structure calculation only G13GAKacRH18 was used, with N-terminal acetyl and C-terminal N-Me amide caps; also called H4K16ac (11–21) peptide; source: synthetic peptide
B5: binds [9].

B6: histone H4 peptide, residues 8–25 (peptide, UniProt P62805 9-26, looked up)
peptide: KGLGKGGAKRHRKVLRDN
notes: histone H4, residues 8-25; source: synthetic peptide (SynPeptide)
B6: binds [8].

B7: histone H4K16ac (11-21) peptide (peptide, UniProt P62805 12-22, looked up)
peptide: GKGGAK(Ac)RHRKV
notes: histone H4, residues 11-21, acetylated at K16; source: synthetic peptide
B7: binds [10].

Reference: paper PMC6534582 (Nature Communications, 2019)
